Like-named read-outs stand apart in the source and are kept apart here.
How the values were obtained:
[1] = Lipophilicity determination using RP-HPLC (capacity factor, log k); type: physicochemical; settings: C18, MeOH 55%/H2O 45%
Description: Reversed phase high performance liquid chromatography (RP-HPLC) methods have become popular and are widely used for lipophilicity measurements. The general procedure is the measurement of the directly accessible retention time under isocratic conditions using varying amounts of methanol as an organic modifier in the mobile phase using RP columns and calculating the logarithm of the capacity factors (log k). Log k is the logarithm of the capacity factors in chromatographic approaches that is related to the partitioning of a compound between a mobile and a (pseudo-)stationary phase. Log k is used as the lipophilicity index converted to log P scale.
A Waters Alliance 2695 XE HPLC separation module and a Waters Photodiode Array Detector 2996 (Waters Corp., Milford, MA, USA) were used. A Symmetry® C18 5 μm, 4.6 × 250 mm, Part No. WAT054275 (Waters Corp.) chromatographic column was used. The HPLC separation process was monitored using Empower™ 2 Chromatography Data Software, Waters 2009 (Waters Corp.). A mixture of MeOH p.a. (55%) and H2O-HPLC-Mili-Q Grade (45%) was used as a mobile phase. The total flow of the column was 0.9 mL/min, injection volume 30 μL, column temperature 30 °C and sample temperature 10 °C. A detection wavelength of 210 nm was chosen. A KI methanolic solution was used for the determination of dead time (tD). Retention times (tR) were measured in minutes. The capacity factors k were calculated using the Empower™ 2 Chromatography Data Software according to the formula k = (tR − tD)/tD, where tR is the retention time of the solute, whereas tD denotes the dead time obtained using an unretained analyte. Log k, calculated from the capacity factor k, is used as the lipophilicity index converted to log P scale.

[2] = test system: Candida albicans ATCC 44859; experiment: In vitro antifungal susceptibility, broth microdilution; type: cell-based; settings: read-out: MIC (IC80) CA
Candida tropicalis 156 = experiment: as above; type: cell-based; settings: read-out: MIC (IC80) CT
Candida krusei ATCC 6258 = experiment: as above; type: cell-based; settings: Pichia kudriavzevii, read-out: MIC (IC80) CK
Candida glabrata 20/I = experiment: as above; type: cell-based; settings: Nakaseomyces glabratus, read-out: MIC (IC80) CG
[3] = test system: Trichosporon beigelii 1188; experiment: as above; type: cell-based; settings: read-out: MIC (IC80) TB
Description: The broth microdilution test was used for the assessment of the in vitro antifungal activity of the synthesized compounds against Candida albicans ATCC 44859 (CA), Candida tropicalis 156 (CT), Candida krusei ATCC 6258 (CK), Candida glabrata 20/I (CG), Trichosporon beigelii 1188 (TB), Aspergillus fumigatus 231 (AF), Absidia corymbifera 272 (AC), and Trichophyton mentagrophytes 445 (TM). Fluconazole (FLU) was used as the standard since it is a clinically used antimycotic drug. The procedure was performed using a twofold dilution of the compounds in RPMI 1640 (Sevapharma a.s., Prague, Czech Republic) buffered to pH 7.0 with […] of 3-morpholino-propane-1-sulfonic acid (MOPS, Sigma, Prague, Czech Republic). The final concentrations of the compounds ranged from 500 to 0.975 μmol/L. Drug-free controls were included. The determination of minimum inhibitory concentration (MIC) was performed according to the Clinical and Laboratory Standards Institute (CLSI, formerly NCCLS) reference protocol M27-A2 for yeasts (IC80 value) and M38-A for moulds (IC50 value). IC80 and IC50 were defined as an 80% resp. 50% or greater reduction in growth in comparison with the control. The values of MICs were determined after 24 and 48 h of static incubation at 35 °C. The final MICs for T. mentagrophytes, were determined after 72 and 120 h of incubation.

[4] = test system: Aspergillus fumigatus 231; experiment: as above; type: cell-based; settings: read-out: MIC (IC50) AF
Absidia corymbifera 272 = experiment: as above; type: cell-based; settings: read-out: MIC (IC50) AC
[5] = test system: Trichophyton mentagrophytes 445; experiment: as above; type: cell-based; settings: read-out: MIC (IC50) TM
[6] = test system: HCT-116 human colon cancer cells (p53 wild type); set-up: method as in PMID 22858101; settings: footnote 3: anticancer activity described elsewhere ref [34],[44]; cited from earlier work
[7] = test system: photosynthetic electron transport (PET) in spinach chloroplasts; experiment: Inhibition of photosynthetic electron transport (PET) in spinach chloroplasts; type: biochemical, Spinacia oleracea L.; settings: DCPIP photoreduction
Procedure: Chloroplasts were prepared from spinach (Spinacia oleracea L.) according to Masarovicova and Kralova. The inhibition of the photosynthetic electron transport (PET) in spinach chloroplasts was determined spectrophotometrically (Genesys 6, Thermo Fisher Scientific, Waltham, MA, USA) using an artificial electron acceptor 2,6-dichlorophenol-indophenol (DCIPP) according to Kralova et al. and the rate of photosynthetic electron transport was monitored as a photoreduction of DCPIP. The measurements were carried out in a phosphate buffer (0.02 mol/L, pH 7.2) containing sucrose (0.4 mol/L), MgCl2 (0.005 mol/L) and NaCl (0.015 mol/L). The chlorophyll content was 30 mg/L in these experiments and the samples were irradiated (~100 W/m^2 with 10 cm distance) with a halogen lamp (250 W) using a 4 cm water filter to prevent warming of the samples (suspension temperature 22 °C). The compounds studied were dissolved in DMSO due to their limited water solubility. […] The inhibitory efficiency of the compounds studied was expressed by IC50 values, i.e., by the molar concentration of the compounds that caused a 50% decrease in the oxygen evolution rate relative to the untreated control.

[8] = test system: HCT-116 human colon cancer cells (p53 wild type); experiment: In vitro antiproliferative activity, MTS assay; type: cell-based; settings: HCT-116, 72 h incubation, MTS, read-out: HCT-116 IC50
Procedure: The antiproliferative activity of all of the compounds was examined against the human colon cancer (HCT-116) cell line using an MTS assay. The HCT-116 p53 wild type cell line was chosen on the basis of our former experience and some results on the activity of quinoline-based thiosemicarbazones that was published recently. Namely, compounds 4a–l have been tested previously for their wide-ranging anticancer activity. The antiproliferative activity of the compounds evaluated was assessed using Doxorubicin as a reference compound. In general, quinoline-based thiosemicarbazones 4 seem to have a much better anticancer activity than halogenophenyl compounds 3. Thus, the quinoline nucleus can be defined as being crucial for antiproliferative activity. A more detailed analysis of the anticancer activity of quinoline-based thiosemicarbazone is available. […] Nevertheless, some more general conclusions can be drawn from the gathered data. […] The free amino group or substitution pattern with small substituents such as methyl or ethyl are favorable for activity. According to our former results the chelating ability of the compounds may be one of the prerequisites of the antiproliferative activity. In this study we have measured the UV-VIS spectra of the compounds in presence of various concentration of Fe^3+ cations to observe its chelating potency (supplementary material). […] However as 4j give also two points at 330 and 385 nm, iron chelating ability should be regarded only as one of the factor influencing the biological activity.
The human colon cancer cell line HCT116 with the wild type p53 gene (p53^+/+) were obtained from Maria Sklodowska-Curie Memorial Cancer Center in Gliwice, Poland. Briefly, the cells were seeded in 96-well plates (3 × 10^3 cells/well) in cellular proliferation assays 24 h before the addition of the chelators. The assay was performed following a 72 h incubation with varying concentrations of the agents. Each compound was tested in triplicate in a single experiment with each experiment being repeated 3 times. After 72 h incubation with the compounds being investigated, 20 µL of MTS solution was added to each well (100 µL) and incubated for 1 h at 37 °C. The optical densities of the samples were analyzed at 490 nm. Results were expressed as a percentage of the control. The inhibitory concentration (IC50) was defined as the compound concentration necessary to reduce the absorbance to 50% of the untreated control.

[9] = ATCC44859, 24 h and 48 h, only one value presented (inactive)
[10] = Candida tropicalis, 156, 24 h and 48 h, only one value presented (inactive)
[11] = ATCC6258, 24 h and 48 h, only one value presented (inactive)
[12] = 24 h and 48 h, only one value presented (inactive)
[13] = Trichosporon beigelii, 1188, 24 h and 48 h, only one value presented (inactive)
[14] = Aspergillus fumigatus, 231, 24 h and 48 h, only one value presented (inactive)
[15] = Lichtheimia corymbifera, 272, 24 h and 48 h, only one value presented (inactive)
[16] = Trichophyton mentagrophytes, 445, 72 h and 120 h, only one value presented (inactive)

| Compound | log k [1] | MIC [2, 9] [µM] | MIC (Candida tropicalis 156; [10]) [µM] | MIC (Candida krusei ATCC 6258; [11]) [µM] | MIC (Candida glabrata 20/I; [12]) [µM] | MIC [3, 13] [µM] | IC50 [4, 14] [µM] | IC50 (Absidia corymbifera 272; [15]) [µM] | IC50 [5, 16] [µM] | IC50 [6] [µM] | IC50 [7] [µM] | IC50 [8] [µM] | further results |
| --- | --- | --- | --- | --- | --- | --- | --- | --- | --- | --- | --- | --- | --- |
| NC(=S)N/N=C/c1cccc(Cl)c1Cl [Compound 3a, (E)-2-(2,3-Dichlorobenzylidene)hydrazinecarbothioamide] | 0.6892 | > 125 | > 125 | > 125 | > 125 | > 125 | > 125 | > 125 | > 125 | 41.5 ± 1.7 |  |  |  |
| CCNC(=S)N/N=C/c1cccc(Cl)c1Cl [Compound 3d, (E)-2-(2,3-Dichlorobenzylidene)-N-ethylhydrazinecarbothioamide] | 0.7958 | > 500 | > 500 | > 500 | > 500 | > 500 | > 500 | > 500 | > 500 | 58.5 ± 0.2 |  |  |  |
| NC(=S)N/N=C/c1ccc(Cl)c(Cl)c1 [Compound 3f, (E)-2-(3,4-Dichlorobenzylidene)hydrazinecarbothioamide] | 0.6974 | > 500 | > 500 | > 500 | > 500 | > 500 | > 500 | > 500 | > 500 |  | 283 | 46 ± 0.9 |  |
| CNC(=S)N/N=C/c1ccc(Cl)c(Cl)c1 [Compound 3g, (E)-2-(3,4-Dichlorobenzylidene)-N-methylhydrazinecarbothioamide] | 0.7563 | > 125 | > 125 | > 125 | > 125 | > 125 | > 125 | > 125 | > 125 |  | 136 | 55.5 ± 6.2 |  |
| CCNC(=S)N/N=C/c1ccc(Cl)c(Cl)c1 [Compound 3i, (E)-2-(3,4-Dichlorobenzylidene)-N-ethylhydrazinecarbothioamide] | 0.8415 | > 500 | > 500 | > 500 | > 500 | > 500 | > 500 | > 500 | > 500 |  | 280 | 48.5 ± 2.8 |  |
| S=C(N/N=C/c1ccc(Cl)c(Cl)c1)Nc1ccccc1 [Compound 3j, (E)-2-(3,4-Dichlorobenzylidene)-N-phenylhydrazinecarbothioamide] | 0.9774 | > 125 | > 125 | > 125 | > 125 | > 125 | > 125 | > 125 | > 125 |  | 426 | > 60 |  |
| CCNC(=S)N/N=C/c1ccc(Br)cc1 [Compound 3n, (E)-2-(4-Bromobenzylidene)-N-ethylhydrazinecarbothioamide] | 0.7568 | > 500 | > 500 | > 500 | > 500 | > 500 | > 500 | > 500 | > 500 | > 60 |  |  |  |
| Oc1cccc2ccc(C=NNC(=S)Nc3ccccc3)nc12 [Compound 4h] | 0.7548 |  |  |  |  |  |  |  |  | 25 ± 4.29 |  |  | MIC ([2]; ATCC44859, 24 h): > 125 µM; MIC ([2]; ATCC44859, 48 h): > 125 µM; MIC (Candida tropicalis 156; Candida tropicalis, 156, 24 h): > 125 µM; MIC (Candida tropicalis 156; Candida tropicalis, 156, 48 h): > 125 µM; MIC (Candida krusei ATCC 6258; ATCC6258, 24 h): > 125 µM; MIC (Candida krusei ATCC 6258; ATCC6258, 48 h): > 125 µM; MIC (Candida glabrata 20/I; 24 h): > 125 µM; MIC (Candida glabrata 20/I; 48 h): > 125 µM; MIC ([3]; Trichosporon beigelii, 1188, 24 h): > 125 µM; MIC ([3]; Trichosporon beigelii, 1188, 48 h): > 125 µM; IC50 ([4]; Aspergillus fumigatus, 231, 24 h): > 125 µM; IC50 ([4]; Aspergillus fumigatus, 231, 48 h): > 125 µM; IC50 (Absidia corymbifera 272; Lichtheimia corymbifera, 272, 24 h): > 125 µM; IC50 (Absidia corymbifera 272; Lichtheimia corymbifera, 272, 48 h): > 125 µM; IC50 ([5]; Trichophyton mentagrophytes, 445, 72 h): > 125 µM; IC50 ([5]; Trichophyton mentagrophytes, 445, 120 h): > 125 µM |

— paper PMC6268061, “Investigation of the Biological Properties of (Hetero)Aromatic Thiosemicarbazones” (Molecules, 2012)
